# Starred links: 1 amine or outer side, 2 acyl side, 3 side chain; linkers in the order of their positions; H or OH if unused. Positions of bridges follow the written chain, without caps; N, C: chain ends. Non-standard residues stand in square brackets, D forms with d. Residues, ends and D or L forms follow the SMILES beside them. Groups on a side chain read outwards from the residue. *: point of attachment. Trp(1-Me) = Cn1cc(C[C@H](N)C(=O)O)c2ccccc21; C18 diacid = O=C(O)CCCCCCCCCCCCCCCCC(=O)*; C16 diacid = O=C(O)CCCCCCCCCCCCCCC(=O)*; γGlu = O=C(O)[C@H](CCC(=O)[*:2])N[*:1]; 2Nal = N[C@@H](Cc1ccc2ccccc2c1)C(=O)O; Nva = CCC[C@H](N)C(=O)O; AEEA = NCCOCCOCC(=O)O; Sar = CNCC(=O)O
# System: classical complement pathway
# Assay: In vitro haemolysis assay (inhibition of classical complement pathway)
# Format: cell-based, human
# Conditions: Table 5, different residues at position 3 of Ac-IC(1)XWQDWGEHRC(1)T-NH2; read-out: IC50, CP hemolysis
# Outline: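 Compound dilutions preincubated 15 min at room temperature with diluted human serum (titrated per batch for 70-90% maximal haemolysis), then antibody-sensitized sheep RBC (10^7/well) added for 30 min at 37 °C in Tris/casein buffer, pH 7.4. Stopped with EDTA; haemolysis read at 405 nm; IC50 by 4PL fit.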
row,SMILES,IC50
1,"CCC[C@@H]1NC(=O)[C@@H](NC(=O)[C@@H](NC(C)=O)[C@@H](C)CC)CSSC[C@@H](C(=O)N[C@H](C(N)=O)[C@@H](C)O)NC(=O)[C@H](CCCNC(=N)N)NC(=O)[C@H](Cc2c[nH]cn2)NC(=O)[C@H](CCC(=O)O)NC(=O)CNC(=O)[C@H](Cc2c[nH]c3ccccc23)NC(=O)[C@H](CC(=O)O)NC(=O)[C@H](CCC(N)=O)NC(=O)[C@H](Cc2c[nH]c3ccccc23)NC1=O [Norvaline, Ac-IC(1)XWQDWGEHRC(1)T-NH2, reference compound] (Ac-IC[Nva]WQDWGEHRCT-NH2; disulfide 2-12)",> 1 µM

# Same assay, conditions: human serum, sensitized sheep red blood cells; Table 3, given as upper bounds; read-out: IC50, inhibition of hemolysis
row,SMILES,IC50
1,CC[C@H](C)[C@@H]1NC(=O)[C@@H](NC(=O)[C@H](Cc2ccccc2)NC(=O)[C@H](CCC(=O)O)NC(=O)[C@H](CO)NC(C)=O)CSSC[C@@H](C(=O)N(C)CC(=O)N[C@@H](CCC(=O)O)C(=O)N[C@@H](C)C(N)=O)NC(=O)[C@H](CCCNC(=N)N)NC(=O)[C@H](Cc2c[nH]cn2)NC(=O)[C@H](CCC(=O)O)NC(=O)CNC(=O)[C@H](Cc2c[nH]c3ccccc23)NC(=O)[C@H](CCC(=O)O)NC(=O)[C@H](CCC(N)=O)NC(=O)[C@H](Cc2cn(C)c3ccccc23)NC1=O [Compound 83] (Ac-SEFCI[Trp(1-Me)]QEWGEHRC[Sar]EA-NH2; disulfide 4-14),< 0.1 µM
2,CC[C@H](C)[C@H](NC(C)=O)C(=O)N[C@H]1CSSC[C@@H](C(=O)N[C@H](C(=O)NCC(=O)N[C@@H](C)C(=O)N[C@@H](CCC(=O)O)C(=O)N[C@@H](CO)C(N)=O)[C@@H](C)O)NC(=O)[C@H](CCCNC(=N)N)NC(=O)[C@H](Cc2c[nH]cn2)NC(=O)[C@H](C)NC(=O)CNC(=O)[C@H](Cc2c[nH]c3ccccc23)NC(=O)[C@H](CCCCN)NC(=O)[C@H](CCC(N)=O)NC(=O)[C@H](Cc2c[nH]c3ccccc23)NC(=O)[C@H]([C@@H](C)CC)NC1=O [Compound 8] (Ac-ICIWQKWGAHRCTGAES-NH2; disulfide 2-12),< 0.5 µM
3,CC[C@H](C)[C@@H]1NC(=O)[C@@H](NC(=O)[C@H](Cc2ccccc2)NC(C)=O)CSSC[C@@H](C(=O)N[C@H](C(=O)NCC(=O)N[C@@H](C)C(=O)N[C@@H](CCC(=O)O)C(=O)N[C@@H](CO)C(N)=O)[C@@H](C)O)NC(=O)[C@H](CCCNC(=N)N)NC(=O)[C@H](Cc2c[nH]cn2)NC(=O)[C@H](CCC(=O)O)NC(=O)CNC(=O)[C@H](Cc2c[nH]c3ccccc23)NC(=O)[C@H](CC(=O)O)NC(=O)[C@H](CCC(N)=O)NC(=O)[C@H](Cc2ccc3ccccc3c2)NC1=O [Compound 64] (Ac-FCI[2Nal]QDWGEHRCTGAES-NH2; disulfide 2-12),< 0.1 µM
4,CC[C@H](C)[C@@H]1NC(=O)[C@@H](NC(=O)CN(C)C(=O)[C@H](CCC(=O)O)NC(=O)CNC(C)=O)CSSC[C@@H](C(=O)N[C@H](C(=O)N[C@@H](CCC(=O)O)C(=O)N[C@@H](C)C(N)=O)[C@@H](C)O)NC(=O)[C@H](CCCNC(=N)N)NC(=O)[C@H](Cc2c[nH]cn2)NC(=O)[C@H](CCC(=O)O)NC(=O)CNC(=O)[C@H](Cc2c[nH]c3ccccc23)NC(=O)[C@H](CC(=O)O)NC(=O)[C@H](CCC(N)=O)NC(=O)[C@H](Cc2cn(C)c3ccccc23)NC1=O [Compound 88] (Ac-GE[Sar]CI[Trp(1-Me)]QDWGEHRCTEA-NH2; disulfide 4-14),< 0.1 µM
5,CC[C@H](C)[C@H](NC(=O)[C@H](C)NC(=O)[C@H](CO)NC(=O)[C@H](CO)NC(=O)[C@H](CCC(=O)O)NC(=O)CCCCCCCCCCCCCCC(=O)O)C(=O)N[C@H]1CSSC[C@@H](C(=O)N[C@H](C(=O)N[C@@H](CCC(=O)O)C(=O)NCC(=O)N[C@@H](CCC(=O)O)C(N)=O)[C@@H](C)O)NC(=O)[C@H](CCCNC(=N)N)NC(=O)[C@H](Cc2c[nH]cn2)NC(=O)[C@H](CCC(=O)O)NC(=O)CNC(=O)[C@H](Cc2c[nH]c3ccccc23)NC(=O)[C@H](CC(=O)O)NC(=O)[C@H](CCC(N)=O)NC(=O)[C@H](Cc2c[nH]c3ccccc23)NC(=O)[C@H]([C@@H](C)CC)NC1=O [Compound 99] ({C16 diacid}-ESSAICIWQDWGEHRCTEGE-NH2; disulfide 6-16),< 0.25 µM
6,CC[C@H](C)[C@@H]1NC(=O)[C@@H](NC(=O)[C@H](Cc2ccc(O)cc2)NC(=O)[C@H](CCC(=O)O)NC(=O)[C@H](CO)NC(C)=O)CSSC[C@@H](C(=O)N(C)CC(=O)N[C@@H](CCC(=O)O)C(=O)NCC(=O)N[C@@H](CCC(=O)O)C(=O)NCCOCCOCC(=O)NCCOCCOCC(=O)N[C@@H](CCCCNC(=O)CC[C@H](NC(=O)CNC(=O)CC[C@H](NC(=O)CCCCCCCCCCCCCCCCC(=O)O)C(=O)O)C(=O)O)C(N)=O)NC(=O)[C@H](CCCNC(=N)N)NC(=O)[C@H](Cc2c[nH]cn2)NC(=O)[C@H](CCC(=O)O)NC(=O)CNC(=O)[C@H](Cc2c[nH]c3ccccc23)NC(=O)[C@H](CC(=O)O)NC(=O)[C@H](CCC(N)=O)NC(=O)[C@H](Cc2cn(C)c3ccccc23)NC1=O [Compound 117] (Ac-SEYCI[Trp(1-Me)]QDWGEHRC[Sar]EGE[AEEA][AEEA]K([γGlu-Gly-γGlu-C18 diacid])-NH2; disulfide 4-14),< 0.25 µM
7,CC[C@H](C)[C@@H]1NC(=O)[C@@H](NC(=O)[C@H](Cc2ccccc2)NC(=O)[C@H](CCC(=O)O)NC(=O)[C@H](CO)NC(C)=O)CSSC[C@@H](C(=O)N(C)CC(=O)N[C@@H](CCC(=O)O)C(=O)NCC(=O)N[C@@H](CCC(=O)O)C(=O)N[C@@H](CO)C(=O)N[C@@H](CCC(=O)O)C(=O)N[C@@H](CO)C(=O)N[C@@H](CCCCNC(=O)CC[C@H](NC(=O)CNC(=O)CC[C@H](NC(=O)CCCCCCCCCCCCCCCCC(=O)O)C(=O)O)C(=O)O)C(N)=O)NC(=O)[C@H](CCCNC(=N)N)NC(=O)[C@H](Cc2c[nH]cn2)NC(=O)[C@H](CCC(=O)O)NC(=O)CNC(=O)[C@H](Cc2c[nH]c3ccccc23)NC(=O)[C@H](CC(=O)O)NC(=O)[C@H](CCC(N)=O)NC(=O)[C@H](Cc2cn(C)c3ccccc23)NC1=O [Compound 139] (Ac-SEFCI[Trp(1-Me)]QDWGEHRC[Sar]EGESESK([γGlu-Gly-γGlu-C18 diacid])-NH2; disulfide 4-14),< 0.1 µM
8,CC[C@H](C)[C@@H]1NC(=O)[C@@H](NC(=O)[C@H](Cc2ccccc2)NC(C)=O)CSSC[C@@H](C(=O)N[C@H](C(N)=O)[C@@H](C)O)NC(=O)[C@H](CCCNC(=N)N)NC(=O)[C@H](Cc2c[nH]cn2)NC(=O)[C@H](CCC(=O)O)NC(=O)CNC(=O)[C@H](Cc2c[nH]c3ccccc23)NC(=O)[C@H](CC(=O)O)NC(=O)[C@H](CCC(N)=O)NC(=O)[C@H](Cc2c[nH]c3ccccc23)NC1=O [Compound 23] (Ac-FCIWQDWGEHRCT-NH2; disulfide 2-12),< 0.1 µM
9,CC[C@H](C)[C@@H]1NC(=O)[C@@H](NC(=O)[C@H](Cc2ccccc2)NC(=O)[C@H](CCC(=O)O)NC(=O)[C@H](CO)NC(C)=O)CSSC[C@@H](C(=O)N(C)CC(=O)N[C@@H](CCC(=O)O)C(=O)N[C@@H](C)C(N)=O)NC(=O)[C@H](CCCCN)NC(=O)[C@H](Cc2c[nH]cn2)NC(=O)[C@H](CCC(=O)O)NC(=O)CNC(=O)[C@H](Cc2c[nH]c3ccccc23)NC(=O)[C@H](CC(=O)O)NC(=O)[C@H](CCC(N)=O)NC(=O)[C@H](Cc2cn(C)c3ccccc23)NC1=O [Compound 86] (Ac-SEFCI[Trp(1-Me)]QDWGEHKC[Sar]EA-NH2; disulfide 4-14),< 0.1 µM
10,CC[C@H](C)[C@H](NC(C)=O)C(=O)N[C@H]1CSSC[C@@H](C(=O)N[C@H](C(N)=O)[C@@H](C)O)NC(=O)[C@H](CCCNC(=N)N)NC(=O)[C@H](Cc2c[nH]cn2)NC(=O)[C@H](CCCCN)NC(=O)CNC(=O)[C@H](Cc2c[nH]c3ccccc23)NC(=O)[C@H](CC(=O)O)NC(=O)[C@H](CCC(N)=O)NC(=O)[C@H](Cc2c[nH]c3ccccc23)NC(=O)[C@H]([C@@H](C)CC)NC1=O [Compound 5] (Ac-ICIWQDWGKHRCT-NH2; disulfide 2-12),< 0.25 µM
11,CC[C@H](C)[C@@H]1NC(=O)[C@@H](NC(=O)CN(C)C(=O)[C@H](N)Cc2ccc(O)cc2)CSSC[C@@H](C(=O)N[C@H](C(=O)N[C@@H](CCC(=O)O)C(=O)N[C@@H](C)C(N)=O)[C@@H](C)O)NC(=O)[C@H](CCCNC(=N)N)NC(=O)[C@H](Cc2c[nH]cn2)NC(=O)[C@H](CCC(=O)O)NC(=O)CNC(=O)[C@H](Cc2c[nH]c3ccccc23)NC(=O)[C@H](CC(=O)O)NC(=O)[C@H](CCC(N)=O)NC(=O)[C@H](Cc2cn(C)c3ccccc23)NC1=O [Compound 91] (H-[dY][Sar]CI[Trp(1-Me)]QDWGEHRCTEA-NH2; disulfide 3-13),< 0.1 µM
12,CC[C@H](C)[C@@H]1NC(=O)[C@@H](NC(=O)[C@H](Cc2ccccc2)NC(=O)[C@H](CCC(=O)O)NC(=O)[C@H](CO)NC(C)=O)CSSC[C@@H](C(=O)N[C@H](C(=O)N[C@@H](CCC(=O)O)C(=O)NCC(=O)N[C@@H](CCC(=O)O)C(=O)NCCOCCOCC(=O)NCCOCCOCC(=O)N[C@@H](CCCCNC(=O)CC[C@H](NC(=O)CNC(=O)CC[C@H](NC(=O)CCCCCCCCCCCCCCCCC(=O)O)C(=O)O)C(=O)O)C(N)=O)[C@@H](C)O)NC(=O)[C@H](CCCNC(=N)N)NC(=O)[C@H](Cc2c[nH]cn2)NC(=O)[C@H](CCC(=O)O)NC(=O)CNC(=O)[C@H](Cc2c[nH]c3ccccc23)NC(=O)[C@H](CC(=O)O)NC(=O)[C@H](CCC(N)=O)NC(=O)[C@H](Cc2cn(C)c3ccccc23)NC1=O [Compound 126] (Ac-SEFCI[Trp(1-Me)]QDWGEHRCTEGE[AEEA][AEEA]K([γGlu-Gly-γGlu-C18 diacid])-NH2; disulfide 4-14),< 0.1 µM

# Same assay, conditions: human serum, sensitized sheep red blood cells; Table 4, valine 3 vs isoleucine 3 pairs; read-out: CP hemolysis IC50
row,SMILES,IC50
1,"CC[C@H](C)[C@H](NC(C)=O)C(=O)N[C@H]1CSSC[C@@H](C(=O)N[C@@H](CO)C(N)=O)NC(=O)[C@H](CCCNC(=N)N)NC(=O)[C@H](Cc2c[nH]cn2)NC(=O)[C@H](CCC(=O)O)NC(=O)CNC(=O)[C@H](Cc2c[nH]c3ccccc23)NC(=O)[C@H](CC(=O)O)NC(=O)[C@H](CCC(N)=O)NC(=O)[C@H](Cc2c[nH]c3ccccc23)NC(=O)[C@H](C(C)C)NC1=O [G, reference compound] (Ac-ICVWQDWGEHRCS-NH2; disulfide 2-12)",0.18 µM
